# Test results reported in patent publication US20250099455A1, “TREATMENT FOR CONGESTIVE HEART FAILURE” (FibroGen, Inc., priority 2022, published 2025).
# “Also recorded” adds a separate entry of the source.
# Experiments:
# [1] = system: coronary artery (isolated heart preparation); assay: Coronary artery vasodilation in an isolated heart preparation
# [2] = system: permanent myocardial ischemia induced HF; assay: Permanent myocardial ischemia induced HF; type: in vivo, rat; details: 6, 20 mg/kg daily, 4 weeks; at both doses
# [3] = system: congestive heart failure subsequent to myocardial infarction; assay: Rat CHF subsequent to myocardial infarction, delayed treatment (Example 2); type: in vivo
# Procedure: The effect of delayed treatment with the compound of Formula I on cardiac function in congestive heart failure (CHF) was studied by inducing CHF subsequent to MI. Four groups of rats (n=11-12) were subjected to MI by 30 minute ligation of the left coronary artery followed by reperfusion. In a sham group, rats underwent a similar surgical procedure except that the left coronary artery was not occluded. Cardiac function was measured in one group at 28 days post-MI (Baseline). In the remaining MI groups, dosing with vehicle or test article was initiated on Day 28. Rats were orally dosed every other day with vehicle, 6 mg/kg or 20 mg/kg compound from day 28 until day 54 post-MI. At 56 days post-MI, cardiac function, heart weight and complete blood count (CBC) were measured. • Male Sprague Dawley rats • Ligation of left coronary artery for 30 minutes followed by reperfusion • Post-ligation recovery for 28 days • Cardiac function 28 days after ischemia-reperfusion using a Millar pressure-volume catheter inserted in the left ventricle via the carotid artery • Record pressure-volume loops over several cardiac cycles and derived cardiac function parameters
# PK profile in monkeys = type: in vivo, monkey; details: for bioavailability: po
# [4] = system: congestive heart failure subsequent to myocardial infarction; assay: Rat CHF subsequent to myocardial infarction, daily dosing (Example 4); type: in vivo
# Procedure: A similar experiment was carried out in which rats were dosed more frequently with a lower dose. Animals were dosed orally every day with vehicle, 2 mg/kg, 6 mg/kg or 20 mg/kg compound from day 2 to day 26 post MI. […] The effect of the compound of Formula I on cardiac function in congestive heart failure (CHF) was studied by inducing CHF subsequent to myocardial infarction (MI). Four groups of rats (n=12) were subjected to MI by 30 minute ligation of the left coronary artery followed by reperfusion. In a sham group, rats underwent a similar surgical procedure except that the left coronary artery was not occluded. Treatment with the compound of Formula I was initiated 2 days after reperfusion. In the MI groups, rats were dosed orally daily with vehicle, 2 mg/kg, 6 mg/kg or 20 mg/kg compound from day 2 to day 26 post MI. In the sham group, rats were dosed with vehicle on the same schedule. At 28 days post-MI, cardiac function, heart weight, and complete blood count (CBC) were measured. • Male Sprague Dawley rats • Ligation of left coronary artery for 30 minutes followed by reperfusion • Post-ligation recovery for 28 days • Cardiac function 28 days after ischemia-reperfusion using a Millar pressure-volume catheter inserted in the left ventricle via the carotid artery • Record pressure-volume loops over several cardiac cycles and derived cardiac function parameters
# PK profile in rats = type: in vivo, rat
# [5] = Preliminary PK profile in dogs; type: in vivo, dog
# Source text: The preliminary PK profile of the compound of Formula I in dogs was studied and the results are shown in FIG. 19 and summarized in the following Table.
# [6] = delayed administration, 6, 20 mg/kg QOD, 4 weeks
# [7] = delayed: 6 or 20 mg/kg oral QOD day 28-54 post-MI, 56 days post-MI
# [8] = delayed: 6 or 20 mg/kg oral QOD day 28-54 post-MI, 56 days post-MI, vs vehicle
# [9] = both sexes, monkey, in vivo, oral, monkeys, males and females
# [10] = both sexes, monkey, in vivo, monkeys, males and females
# [11] = in vivo, monkey, PK summary table
# [12] = 2, 6 or 20 mg/kg oral daily day 2-26 post MI, 28 days post-MI
# [13] = 2, 6 or 20 mg/kg oral daily day 2-26 post MI, 28 days post-MI, vs vehicle
# [14] = dog, in vivo, dogs, preliminary
smiles,measurement,setting,value
"CC(C)(CC(=O)O)NC(=O)c1nc(C#N)c2cc(Oc3ccccc3)ccc2c1O [Formula I, 3-[(1-cyano-4-hydroxy-7-phenoxy-isoquinoline-3-carbonyl)-amino]-3-methyl-butyric acid]","coronary artery vasodilation (coronary perfusion pressure, coronary resistance)",[1],induced
same,cardiac hypertrophy,[2],Non-significant reduction in cardiac
same,collagen deposition,[2],Non-significant reduction in cardiac
same,diastolic function,[3]; [6],Some improvement in diastolic
same,systolic function,[3]; [6],improved systolic function (ejection
same,cardiac hypertrophy,[3]; [7],improved; also recorded: Some improvement in diastolic
same,dPdtmax,[3]; [7],improved
same,end-diastolic volume,[3]; [7],improved
same,hematocrit,[3]; [7],no significant effect; also recorded: no erythropoietic effect
same,hemoglobin level,[3]; [7],no significant effect; also recorded: no erythropoietic effect
same,relaxation time,[3]; [7],improved; also recorded: improvement
same,ejection fraction,[3]; [8],significantly improved; also recorded: improvement; also recorded: fraction improved at both doses)
same,end-systolic volume,[3]; [8],significantly improved; also recorded: improvement
same,cardiac contractility,"[3]; started 28 days after MI, every other day for 28 days",improvement
same,Cmax,PK profile in monkeys; [9],10900 ± 3700 ng/mL
same,Tmax,PK profile in monkeys; [9],2.6 ± 1.6 h
same,AUC(0-inf),PK profile in monkeys; [10],180 ± 68 µg·h/mL
same,AUC(0-t),PK profile in monkeys; [10],176 ± 67 µg·h/mL
same,clearance,PK profile in monkeys; [10],0.433 mL/min/kg
same,half-life,PK profile in monkeys; [10],34.6 ± 9.5 h
same,Vd,"PK profile in monkeys; both sexes, monkey, in vivo, monkeys, males and females, read-out: Vss",0.184 ± 0.028 L/kg
same,Tmax,"PK profile in monkeys; in vivo, oral, monkey, PK summary table",~1 h
same,clearance,PK profile in monkeys; [11],0.517 to 0.667 mL/min/kg
same,half-life,PK profile in monkeys; [11],22 to 36 h
same,Systemic clearance compared with other species,PK profile in monkeys; monkey vs rats (slower than CL in dogs),comparable to those in rats
same,Dose proportional,"PK profile in monkeys; monkey, 10-60 mg/kg",Yes
same,Accumulation (after multiple dosing),"PK profile in monkeys; monkey, daily dosing, compared to Day 1 exposure",2-3 fold higher
same,bioavailability,"PK profile in monkeys; monkey, in vivo, monkeys, read-out: Oral bioavailability (Oral % F)",36 to 48%
same,bioavailability,"PK profile in monkeys; monkey, in vivo, monkeys, read-out: Oral bioavailability, group mean",42 to 47%
same,Dose proportional,"PK profile in monkeys; monkey, up to 150 mg/kg",less than dose
same,Dose proportionality of compound exposure,PK profile in monkeys; monkeys,increased dose proportionally
same,Vss relative to plasma volume,PK profile in monkeys; monkeys,higher than plasma volume
same,Sex difference in PK,"PK profile in monkeys; monkeys, compound exposure or key PK parameters",no marked sex difference and No
same,collagen deposition,"[4]; 2, 6, 20 mg/kg daily, 4 weeks",Significant reduction in cardiac
same,diastolic function,"[4]; 2, 6, 20 mg/kg daily, 4 weeks","deposition, improvement in systolic"
same,systolic function,"[4]; 2, 6, 20 mg/kg daily, 4 weeks","deposition, improvement in systolic"
same,circulating hemoglobin level,[4]; [12],did not produce a concomitant significant increase; also recorded: without any concomitant rise
same,other CBC parameters,[4]; [12],did not produce a concomitant significant increase in circulating hemoglobin level or have a significant effect
same,arterial elastance,[4]; [13],significantly improved
same,cardiac hypertrophy,[4]; [13],significantly improved; also recorded: significant improvement; also recorded: Significant reduction in cardiac
same,cardiac output,[4]; [13],significantly improved; also recorded: significant improvement
same,dPdtmax,[4]; [13],significantly improved
same,ejection fraction,[4]; [13],significantly improved; also recorded: significant improvement; also recorded: fraction improved at all doses)
same,end systolic volume,[4]; [13],significantly improved; also recorded: significant improvement
same,end-diastolic pressure,[4]; [13],significantly improved
same,relaxation time,[4]; [13],significantly improved; also recorded: significant improvement
same,stroke volume,[4]; [13],significantly improved; also recorded: significant improvement
same,stroke work,[4]; [13],significantly improved; also recorded: significant improvement
same,effectiveness of a lower dose at more frequent intervals vs a higher dose at less frequent intervals,"[4]; daily 2, 6, 20 mg/kg vs every other day dosing",equally effective
same,cardiac contractility,[4]; daily for 28 days,significant improvement
same,Tmax,"PK profile in rats; in vivo, oral, rat, PK summary table",5 to 6 h
same,Sex difference in PK,PK profile in rats; rat,No
same,Accumulation (after multiple dosing),"PK profile in rats; rat, 4 wk GLP TK",Yes (4 wk
same,Dose proportional,"PK profile in rats; rat, 10-150 mg/kg",Yes
same,clearance,"PK profile in rats; rat, in vivo, PK summary table",0.367 to 0.667 mL/min/kg
same,half-life,"PK profile in rats; rat, in vivo, PK summary table, mostly",5 to 6 h
same,half-life,"PK profile in rats; rat, in vivo, PK summary table, some longer",10 to 15 h
same,bioavailability,"PK profile in rats; rat, in vivo, po, rats, read-out: Oral bioavailability (Oral % F)",~78%
same,AUC(0-inf),"PK profile in rats; rat, in vivo, rats",1080 ± 328 µg·h/mL
same,AUC(0-t),"PK profile in rats; rat, in vivo, rats",1010 ± 268 µg·h/mL
same,Cmax,"PK profile in rats; rat, in vivo, rats",91000 ± 12000 ng/mL
same,Tmax,"PK profile in rats; rat, in vivo, rats",6.7 ± 1.2 h
same,clearance,"PK profile in rats; rat, in vivo, rats",0.367 mL/min/kg
same,half-life,"PK profile in rats; rat, in vivo, rats",5 ± 1.3 h
same,Vd,"PK profile in rats; rat, in vivo, rats, read-out: Vss",0.123 ± 0.056 L/kg
same,Accumulation (after multiple dosing),"PK profile in rats; rat, once daily dosing 2 weeks",Unclear
same,CL relative to hepatic blood flow rate,PK profile in rats; rats,lower than hepatic blow flow rate
same,Vss relative to plasma volume,PK profile in rats; rats,higher than plasma volume
same,Sex difference in PK,[5]; dog,No
same,Dose proportional,"[5]; dog, 10-60 mg/kg",Yes
same,CL,"[5]; dog, PK summary table",4.2 ± 0.683 mL/min/kg
same,half-life,"[5]; dog, in vivo, PK summary table",11 ± 2 h
same,bioavailability,"[5]; dog, in vivo, po, dogs, read-out: Oral bioavailability (Oral % F)",~25%
same,AUC(0-inf),[5]; [14],10.2 ± 3.3 µg·h/mL
same,AUC(0-t),[5]; [14],10.2 ± 3.3 µg·h/mL
same,Cmax,[5]; [14],2600 ± 1900 ng/mL
same,Tmax,[5]; [14],0.8 ± 0.4 h
same,clearance,[5]; [14],4.2 mL/min/kg
same,half-life,[5]; [14],11.3 ± 1.8 h
same,Vd,"[5]; dog, in vivo, dogs, preliminary, read-out: Vss",0.249 ± 0.073 L/kg
same,Dose proportional,"[5]; dog, up to 150 mg/kg",less than dose
same,Accumulation (after multiple dosing),"[5]; dog, no data, expected based on T1/2",some acc based
same,Vss relative to plasma volume,[5]; dogs,higher than plasma volume
same,Clearance in dogs relative to CL in rats,[5]; dogs vs rats,5-10 ×
same,Tmax,"[5]; in vivo, oral, dog, PK summary table",~1 h
